Test results as given in US20090194124A1, “Hair Shaping Kit and Process Comprising at Least One Non-Hydroxide Imine” (priority 2003, published 2009).

What was measured:
[1] = pH of the simplified permanent-waving composition; format: physicochemical
Procedure: […]. The pH of the composition was 13.6. This composition was applied to Caucasian hair, wound beforehand onto curlers, for 15 minutes at a temperature of 30° C.
[…]. The pH of the composition was 13.5. This composition was applied to Caucasian hair, wound beforehand onto curlers, for 25 minutes at a temperature of 30° C.
(§1) A simplified permanent-waving composition was prepared, containing, as a permanent-waving active agent, 1,3,4,6,7,8-hexahydro-2H-pyrimido[1,2-a]pyrimidine (Registry Number [5807-14-7]) at a concentration of 0.7 M in water. The pH of the composition was 13.5. This composition was applied to Caucasian hair, wound beforehand onto curlers, for 15 minutes at a temperature of 30° C.
as §1, with “0.5M” for “0.7 M”, “13.4.” for “13.5.”, “20” for “15”

[2] = permanent-waving of hair wound onto curlers with a simplified aqueous composition; details: Caucasian hair wound onto curlers
Procedure: In the permanent shaping processes described herein, the composition is applied to wet or dry hair, wound beforehand onto rollers (curlers) having a diameter of from 2 mm to 30 mm. It is also possible to apply the composition as the hair is wound up. […] This composition was applied to Caucasian hair, wound beforehand onto curlers, for 15 minutes at a temperature of 30° C. […] This composition was applied to Caucasian hair, wound beforehand onto curlers, for 25 minutes at a temperature of 30° C. […] This composition was applied to Caucasian hair, wound beforehand onto curlers, for 15 minutes at a temperature of 30° C. […] This composition was applied to Caucasian hair, wound beforehand onto curlers, for 20 minutes at a temperature of 30° C.

Row | Compound | pH of the composition ([1]; 0.5M in water) | pH of the composition ([1]; 0.7 M in water) | result on the hair after permanent-waving (curl and feel) ([2]; 0.5M in water, applied 20 minutes at 30° C.) | result on the hair after permanent-waving (curl and feel) ([2]; 0.7 M in water, applied 15 minutes at 30° C.)
1 | CN(C)C(=N)NC(=N)N [1,1-dimethylbiguanide] | 13.5 | 13.6 | – | –
2 | C1CN=C2NCCCN2C1 [1,3,4,6,7,8-hexahydro-2H-pyrimido[1,2-a]pyrimidine] | 13.4 | 13.5 | beautifully curly and felt soft | beautifully curly and felt soft
